The record followed here is US20260347364A1, “PYRAZOLO[4,3-F]QUINAZOLINE DERIVATIVES AS MODULATORS OF G12D MUTANT KRAS USEFUL FOR THE TREATMENT OF CANCER” (JAZZ PHARMACEUTICALS IRELAND LTD., priority 2023, published 2026).

The IC50 is the concentration that gives 50% inhibition. A lower IC50 goes with greater potency.

Assay [1] deals with T1, KRAS G12D (Homo sapiens, UniProt P01116, G12D).
T1 construct: aa1-188 KRAS WT, HRAS WT, NRAS WT, or KRAS containing the G12D
The assay is described as follows: HTRF nucleotide exchange assay, KRAS G12D. It counts as biochemical. As to conditions: HTRF nucleotide exchange assay (NEA), class symbols.

Assay [2] deals with T2, KRAS WT (Homo sapiens, UniProt P01116).
T2 construct: aa1-188 KRAS WT
The assay is described as follows: HTRF nucleotide exchange assay, KRAS WT. The assay is classed as biochemical. As to conditions: class symbols; for IC50: HTRF nucleotide exchange assay (NEA).

T2 sequence (P01116 1-188 isoform P01116-2): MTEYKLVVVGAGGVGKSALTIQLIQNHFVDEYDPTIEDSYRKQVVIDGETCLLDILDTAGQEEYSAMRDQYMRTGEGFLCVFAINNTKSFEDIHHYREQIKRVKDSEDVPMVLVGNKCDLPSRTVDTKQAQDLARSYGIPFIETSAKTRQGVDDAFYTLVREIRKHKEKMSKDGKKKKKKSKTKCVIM
T1 sequence (P01116 1-188 isoform P01116-2 G12D): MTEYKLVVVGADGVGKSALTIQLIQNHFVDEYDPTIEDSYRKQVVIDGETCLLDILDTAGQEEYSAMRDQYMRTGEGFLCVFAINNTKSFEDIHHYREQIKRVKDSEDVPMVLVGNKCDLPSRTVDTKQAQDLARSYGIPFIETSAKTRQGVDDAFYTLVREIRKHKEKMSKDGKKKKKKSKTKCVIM

On to `CCc1c(F)ccc2cc(O)cc(-c3cc4nc(OC[C@@]56CCCN5C[C@H](F)C6)nc(N5CCC(C)C(O)C5)c4c4cn(C)nc34)c12` (stereo partly drawn) [Example 133, 1-[4-(8-ethyl-7-fluoro-3-hydroxy-1-naphthyl)-2-methyl-7-[[(2R,8S)-2-fluoro-1,2,3,5,6,7-hexahydropyrrolizin-8-yl]methoxy]pyrazolo[4,3-f]quinazolin-9-yl]-4-methyl-piperidin-3-ol], for which the concentration for half-maximal inhibition (IC50) in assay [1] lay within 10 to 100 nM; in assay [2], 100 to 10000 nM.
For the compound `CCc1c(F)ccc2cc(O)cc(-c3cc4nc(OC[C@@]56CCCN5C[C@H](F)C6)nc(N5CCCC(O)(C(C)C)C5)c4c4cn(C)nc34)c12` (stereo partly drawn) [Example 134, 1-[4-(8-ethyl-7-fluoro-3-hydroxy-1-naphthyl)-2-methyl-7-[[(2R,8S)-2-fluoro-1,2,3,5,6,7-hexahydropyrrolizin-8-yl]methoxy]pyrazolo[4,3-f]quinazolin-9-yl]-3-isopropyl-piperidin-3-ol], the half-inhibitory concentration (IC50) in assay [1] lay within 100 to 10000 nM. In assay [2], the “KRAS^WT NEA” value is “D (<49% inhibition at 10 μM)”.
For the compound `CCc1c(F)ccc2cc(O)cc(-c3cc4nc(OC[C@@]56CCCN5C[C@H](F)C6)nc(N5CCC5C(C)(C)O)c4c4cn(C)nc34)c12` (stereo partly drawn) [Example 135, 5-ethyl-6-fluoro-4-[9-[2-(1-hydroxy-1-methyl-ethyl)azetidin-1-yl]-2-methyl-7-[[(2R,8S)-2-fluoro-1,2,3,5,6,7-hexahydropyrrolizin-8-yl]methoxy]pyrazolo[4,3-f]quinazolin-4-yl]naphthalen-2-ol], the values for the 50% inhibitory concentration (IC50) in assay [1] and in assay [2] were 100 to 10000 nM and 10 to 100 nM, respectively.
Turning to `CCc1c(F)ccc2cc(O)cc(-c3cc4nc(OC[C@@]56CCCN5C[C@H](F)C6)nc(N5CCCC6(CC(O)C6)C5)c4c4cn(C)nc34)c12` (stereo partly drawn) [Example 136, 6-[4-(8-ethyl-7-fluoro-3-hydroxy-1-naphthyl)-2-methyl-7-[[(2R,8S)-2-fluoro-1,2,3,5,6,7-hexahydropyrrolizin-8-yl]methoxy]pyrazolo[4,3-f]quinazolin-9-yl]-6-azaspiro[3.5]nonan-2-ol], the IC50 in assay [1] and in assay [2] was at most 10 nM each time.
On to `CCc1c(F)ccc2cc(O)cc(-c3c(C)c4nc(OCC5(C)CC(OC)CN5)nc(N5CCOCC(C)(O)C5)c4c4cn(C)nc34)c12` (stereo not shown) [Example 137, 4-[4-(8-ethyl-7-fluoro-3-hydroxy-1-naphthyl)-7-[(4-methoxy-2-methyl-pyrrolidin-2-yl)methoxy]-2,5-dimethyl-pyrazolo[4,3-f]quinazolin-9-yl]-6-methyl-1,4-oxazepan-6-ol], for which the IC50 in assay [1] and in assay [2] was at most 10 nM in each case.
On to `CCc1c(F)ccc2cc(O)cc(-c3c(C)c4nc(OC[C@@H]5CCCN5C)nc(N5CCOCC(C)(O)C5)c4c4cn(C)nc34)c12` (stereo partly drawn) [Example 138, 4-[4-(8-ethyl-7-fluoro-3-hydroxy-1-naphthyl)-2,5-dimethyl-7-[[(2S)-1-methylpyrrolidin-2-yl]methoxy]pyrazolo[4,3-f]quinazolin-9-yl]-6-methyl-1,4-oxazepan-6-ol], for which the IC50 in assay [1] and in assay [2] was at most 10 nM throughout.
`CCc1c(F)ccc2cc(O)cc(-c3c(C)c4nc(OC[C@]5(C)CCCN5)nc(N5CCOCC(C)(O)C5)c4c4cn(C)nc34)c12` (stereo partly drawn) [Example 139, 4-[4-(8-ethyl-7-fluoro-3-hydroxy-1-naphthyl)-2,5-dimethyl-7-[[(2S)-2-methylpyrrolidin-2-yl]methoxy]pyrazolo[4,3-f]quinazolin-9-yl]-6-methyl-1,4-oxazepan-6-ol]: the IC50 in assay [1] and in assay [2] was at most 10 nM throughout.
For `CCc1c(F)ccc2cc(O)cc(-c3c(C)c4nc(OC[C@@H]5C[C@@H](F)CN5)nc(N5CCOCC(C)(O)C5)c4c4cn(C)nc34)c12` (stereo partly drawn) [Example 140, 4-[4-(8-ethyl-7-fluoro-3-hydroxy-1-naphthyl)-2,5-dimethyl-7-[[(2S,4R)-4-fluoropyrrolidin-2-yl]methoxy]pyrazolo[4,3-f]quinazolin-9-yl]-6-methyl-1,4-oxazepan-6-ol], the IC50 in assay [1] and in assay [2] was at most 10 nM in each case.
`CCc1c(F)ccc2cc(O)cc(-c3c(C)c4nc(OCC5(C)C[C@@H](O)CN5C)nc(N5CCOCC(C)(O)C5)c4c4cn(C)nc34)c12` (stereo partly drawn) [Example 141, 4-[4-(8-ethyl-7-fluoro-3-hydroxy-1-naphthyl)-2,5-dimethyl-7-[[(4R)-4-hydroxy-1,2-dimethyl-pyrrolidin-2-yl]methoxy]pyrazolo[4,3-f]quinazolin-9-yl]-6-methyl-1,4-oxazepan-6-ol]: the IC50 in assay [1] and in assay [2] was at most 10 nM throughout.
Take `CCc1c(F)ccc2cc(O)cc(-c3c(C)c4nc(OCC5(CN(C)C)CC5)nc(N5CCOCC(C)(O)C5)c4c4cn(C)nc34)c12` (stereo not shown) [Example 142, 4-[7-[[1-[(dimethylamino)methyl]cyclopropyl]methoxy]-4-(8-ethyl-7-fluoro-3-hydroxy-1-naphthyl)-2,5-dimethyl-pyrazolo[4,3-f]quinazolin-9-yl]-6-methyl-1,4-oxazepan-6-ol]: the IC50 in assay [1] and in assay [2] was at most 10 nM in each case.
As for `CCc1c(F)ccc2cc(O)cc(-c3c(C)c4nc(OC[C@@H]5CCN5C)nc(N5CCOCC(C)(O)C5)c4c4cn(C)nc34)c12` (stereo partly drawn) [Example 143, 4-[4-(8-ethyl-7-fluoro-3-hydroxy-1-naphthyl)-2,5-dimethyl-7-[[(2S)-1-methylazetidin-2-yl]methoxy]pyrazolo[4,3-f]quinazolin-9-yl]-6-methyl-1,4-oxazepan-6-ol], the IC50 in assay [1] and in assay [2] was at most 10 nM in each case.
With `CCc1c(F)ccc2cc(O)cc(-c3c(C)c4nc(OC[C@@H]5CCN5)nc(N5CCOCC(C)(O)C5)c4c4cn(C)nc34)c12` (stereo partly drawn) [Example 144, 4-[4-(8-ethyl-7-fluoro-3-hydroxy-1-naphthyl)-2,5-dimethyl-7-[[(2S)-azetidin-2-yl]methoxy]pyrazolo[4,3-f]quinazolin-9-yl]-6-methyl-1,4-oxazepan-6-ol], the 50% inhibitory concentration (IC50) in assay [1] is at most 10 nM; in assay [2], 10 to 100 nM.
With `CCc1c(F)ccc2cc(O)cc(-c3c(C)c4nc(OCC5(C)CC(O)CN5)nc(N5CCOCC(C)(O)C5)c4c4cn(C)nc34)c12` (stereo not shown) [Example 145, 4-[4-(8-ethyl-7-fluoro-3-hydroxy-1-naphthyl)-7-[(4-hydroxy-2-methyl-pyrrolidin-2-yl)methoxy]-2,5-dimethyl-pyrazolo[4,3-f]quinazolin-9-yl]-6-methyl-1,4-oxazepan-6-ol], the concentration for half-maximal inhibition (IC50) in assay [1] and in assay [2] was at most 10 nM each time.
With `CCc1c(F)ccc2cc(O)cc(-c3c(C)c4nc(OCC5(CN6CCCC6)CC5)nc(N5CCOCC(C)(O)C5)c4c4cn(C)nc34)c12` (stereo not shown) [Example 146, 4-[4-(8-ethyl-7-fluoro-3-hydroxy-1-naphthyl)-2,5-dimethyl-7-[[1-(pyrrolidin-1-ylmethyl)cyclopropyl]methoxy]pyrazolo[4,3-f]quinazolin-9-yl]-6-methyl-1,4-oxazepan-6-ol], the half-maximal inhibitory concentration (IC50) in assay [1] and in assay [2] was at most 10 nM throughout.
Regarding `CCc1c(F)ccc2cc(O)cc(-c3c(C)c4nc(OCC56CCCN5CCC6)nc(N5CCOCC(C)(O)C5)c4c4cn(C)nc34)c12` (stereo not shown) [Example 147, 4-[4-(8-ethyl-7-fluoro-3-hydroxy-1-naphthyl)-7-(1,2,3,5,6,7-hexahydropyrrolizin-8-ylmethoxy)-2,5-dimethyl-pyrazolo[4,3-f]quinazolin-9-yl]-6-methyl-1,4-oxazepan-6-ol], the IC50 in assay [1] and in assay [2] was at most 10 nM each time.
Regarding `CCc1c(F)ccc2cc(O)cc(-c3c(C)c4nc(OC[C@]5(C)CCCN5C)nc(N5CCOCC(C)(O)C5)c4c4cn(C)nc34)c12` (stereo partly drawn) [Example 148, 4-[4-(8-ethyl-7-fluoro-3-hydroxy-1-naphthyl)-2,5-dimethyl-7-[[(2S)-1,2-dimethylpyrrolidin-2-yl]methoxy]pyrazolo[4,3-f]quinazolin-9-yl]-6-methyl-1,4-oxazepan-6-ol], the IC50 in assay [1] and in assay [2] was at most 10 nM each time.
With `CCc1c(F)ccc2cc(O)cc(-c3c(C)c4nc(OCC5(CN6CCOCC6)CC5)nc(N5CCOCC(C)(O)C5)c4c4cn(C)nc34)c12` (stereo not shown) [Example 149, 4-[4-(8-ethyl-7-fluoro-3-hydroxy-1-naphthyl)-2,5-dimethyl-7-[[1-(morpholinomethyl)cyclopropyl]methoxy]pyrazolo[4,3-f]quinazolin-9-yl]-6-methyl-1,4-oxazepan-6-ol], the half-inhibitory concentration (IC50) in assay [1] and in assay [2] was at most 10 nM each time.
Take `CCc1c(F)ccc2cc(O)cc(-c3c(F)c4nc(OC[C@@H]5C[C@@H](F)CN5)nc(N5CCOCC(C)(O)C5)c4c4cn(C)nc34)c12` (stereo partly drawn) [Example 150, 4-[4-(8-ethyl-7-fluoro-3-hydroxy-1-naphthyl)-5-fluoro-2-methyl-7-[[(2S,4R)-4-fluoropyrrolidin-2-yl]methoxy]pyrazolo[4,3-f]quinazolin-9-yl]-6-methyl-1,4-oxazepan-6-ol]: the IC50 in assay [1] and in assay [2] was at most 10 nM throughout.
In the case of `CCc1c(F)ccc2cc(O)cc(-c3c(F)c4nc(OCC5(C)CC(OC)CN5)nc(N5CCOCC(C)(O)C5)c4c4cn(C)nc34)c12` (stereo not shown) [Example 151, 4-[4-(8-ethyl-7-fluoro-3-hydroxy-1-naphthyl)-5-fluoro-7-[(4-methoxy-2-methyl-pyrrolidin-2-yl)methoxy]-2-methyl-pyrazolo[4,3-f]quinazolin-9-yl]-6-methyl-1,4-oxazepan-6-ol], the IC50 in assay [1] and in assay [2] was at most 10 nM each time.
For the compound `CCc1c(F)ccc2cc(O)cc(-c3c(F)c4nc(OCC5(C)CC(O)CN5)nc(N5CCOCC(C)(O)C5)c4c4cn(C)nc34)c12` (stereo not shown) [Example 152, 4-[4-(8-ethyl-7-fluoro-3-hydroxy-1-naphthyl)-5-fluoro-7-[(4-hydroxy-2-methyl-pyrrolidin-2-yl)methoxy]-2-methyl-pyrazolo[4,3-f]quinazolin-9-yl]-6-methyl-1,4-oxazepan-6-ol], the IC50 in assay [1] and in assay [2] was at most 10 nM each time.
